Assay results from patent publication US20150087613A1, “Inhibition of Opioid Antinociceptive Tolerance and Withdrawal in Nociceptive Pain Therapy” (Saint Louis University, priority 2013, published 2015).
Like-named read-outs stand apart in the source and are kept apart here.

How the values were obtained:
hA3AR = target: T1, hA3AR (Homo sapiens, UniProt P0DMS8); test: cAMP assay, inhibition of forskolin-stimulated cAMP in hA3AR-transfected CHO cells; format: cell-based; conditions: for Emax at 10 µM: CHO, read-out: % efficacy, A3
T1 construct: expressed in transfected cells
T1 sequence (P0DMS8 1-318): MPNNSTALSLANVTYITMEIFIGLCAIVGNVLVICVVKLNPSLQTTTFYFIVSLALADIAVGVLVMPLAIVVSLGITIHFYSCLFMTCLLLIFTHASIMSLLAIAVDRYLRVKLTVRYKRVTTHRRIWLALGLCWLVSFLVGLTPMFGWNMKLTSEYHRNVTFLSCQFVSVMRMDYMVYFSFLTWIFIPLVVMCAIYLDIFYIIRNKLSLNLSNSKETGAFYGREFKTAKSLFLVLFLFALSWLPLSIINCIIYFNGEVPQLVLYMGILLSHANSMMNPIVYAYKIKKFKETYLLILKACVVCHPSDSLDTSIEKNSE

A3AR [1] = target: T2, A3AR (Mus musculus, UniProt Q61618); test: Radioligand binding, membranes of HEK293 cells stably expressing mA3AR; conditions: species m; n 3-4; read-out: affinity (KV nM) A3
T2 construct: expressed in transfected cells
T2 sequence (Q61618 1-319): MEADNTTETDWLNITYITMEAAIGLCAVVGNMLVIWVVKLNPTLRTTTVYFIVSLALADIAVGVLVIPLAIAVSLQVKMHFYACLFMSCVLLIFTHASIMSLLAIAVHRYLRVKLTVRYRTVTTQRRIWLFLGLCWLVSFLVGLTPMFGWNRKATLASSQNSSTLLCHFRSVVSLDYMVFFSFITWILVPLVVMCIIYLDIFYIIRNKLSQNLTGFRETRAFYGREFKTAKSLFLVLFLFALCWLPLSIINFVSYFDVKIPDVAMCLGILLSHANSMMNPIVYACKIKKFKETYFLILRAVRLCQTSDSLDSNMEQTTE

A1AR [2] = target: T3, A1AR (Mus musculus, UniProt Q60612); test: Radioligand binding, membranes of HEK293 cells stably expressing mA1AR; conditions: for Ki: species m, n 3-4, read-out: affinity (KV nM) A1; for inhibition at 10 µM: read-out: % inhibition A1
T3 construct: expressed in transfected cells
T3 sequence (Q60612 1-326): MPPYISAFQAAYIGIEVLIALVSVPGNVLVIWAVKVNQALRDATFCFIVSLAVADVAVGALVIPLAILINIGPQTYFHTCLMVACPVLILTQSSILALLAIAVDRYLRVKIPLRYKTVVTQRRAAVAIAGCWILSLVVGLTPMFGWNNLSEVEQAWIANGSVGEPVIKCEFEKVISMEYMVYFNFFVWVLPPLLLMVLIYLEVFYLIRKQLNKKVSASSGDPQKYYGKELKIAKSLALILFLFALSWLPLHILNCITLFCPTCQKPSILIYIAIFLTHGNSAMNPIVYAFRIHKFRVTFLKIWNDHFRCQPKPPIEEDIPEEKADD

A2AAR [3] = target: T4, A2AAR (Homo sapiens, UniProt P29274); conditions: species h, tested in ref 26, cited from earlier work; for % inhibition A2A: inhibition of binding at 10 μM; for Ki: agonist radioligand 41, read-out: affinity (KV nM) A2A
T4 construct: expressed in transfected cells
T4 sequence (P29274 whole entry): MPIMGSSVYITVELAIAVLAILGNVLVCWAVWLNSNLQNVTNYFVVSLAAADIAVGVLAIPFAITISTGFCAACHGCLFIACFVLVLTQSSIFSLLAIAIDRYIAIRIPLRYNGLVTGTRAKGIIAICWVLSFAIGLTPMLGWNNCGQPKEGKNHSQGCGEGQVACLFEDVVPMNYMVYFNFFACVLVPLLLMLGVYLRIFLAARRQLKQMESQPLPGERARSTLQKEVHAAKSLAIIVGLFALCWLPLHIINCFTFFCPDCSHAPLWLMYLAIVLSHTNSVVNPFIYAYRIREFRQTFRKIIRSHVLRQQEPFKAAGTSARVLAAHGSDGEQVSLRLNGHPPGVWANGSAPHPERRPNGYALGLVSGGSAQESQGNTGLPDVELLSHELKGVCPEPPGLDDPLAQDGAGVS

A2AAR [4] = target: T5, A2AAR (Mus musculus, UniProt Q60613); test: Radioligand binding, membranes of HEK293 cells stably expressing mA2AAR; conditions: read-out: % inhibition A2A
T5 construct: expressed in transfected cells
T5 sequence (Q60613 whole entry): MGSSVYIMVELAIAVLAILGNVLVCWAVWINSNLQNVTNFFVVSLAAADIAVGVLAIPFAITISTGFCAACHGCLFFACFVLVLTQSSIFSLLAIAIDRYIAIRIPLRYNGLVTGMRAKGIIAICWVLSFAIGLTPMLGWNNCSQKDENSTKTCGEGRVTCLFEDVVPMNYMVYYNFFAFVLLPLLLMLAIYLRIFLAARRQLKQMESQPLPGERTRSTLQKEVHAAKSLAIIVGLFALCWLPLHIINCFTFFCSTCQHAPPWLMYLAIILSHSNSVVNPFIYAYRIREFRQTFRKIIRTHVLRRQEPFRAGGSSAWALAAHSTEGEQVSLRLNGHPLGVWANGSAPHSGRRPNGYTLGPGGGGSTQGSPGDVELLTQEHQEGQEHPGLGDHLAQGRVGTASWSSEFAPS

A1AR [5] = target: T6, A1AR (Homo sapiens, UniProt P30542); conditions: species h; inhibition of binding at 10 μM; tested in ref 26; cited from earlier work
T6 construct: expressed in transfected cells
T6 sequence (P30542 1-326): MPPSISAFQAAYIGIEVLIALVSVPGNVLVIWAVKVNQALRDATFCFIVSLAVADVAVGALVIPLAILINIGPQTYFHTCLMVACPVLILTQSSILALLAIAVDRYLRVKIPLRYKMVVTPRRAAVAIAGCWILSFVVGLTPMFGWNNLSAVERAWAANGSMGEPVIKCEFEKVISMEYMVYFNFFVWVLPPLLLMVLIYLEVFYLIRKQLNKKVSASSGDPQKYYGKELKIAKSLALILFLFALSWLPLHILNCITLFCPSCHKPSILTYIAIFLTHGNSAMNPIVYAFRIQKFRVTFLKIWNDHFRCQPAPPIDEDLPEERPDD

A3AR [6] = target: T7, A3AR (Homo sapiens, UniProt P0DMS8); conditions: species h; agonist radioligand 42; tested in ref 26; read-out: affinity (KV nM) A3; cited from earlier work
T7 construct: expressed in transfected cells
T7 sequence (P0DMS8 1-318): T1 sequence (P0DMS8 1-318)

A2AAR [7] = target: T4, A2AAR; test: Radioligand binding, membranes of HEK293 cells stably expressing hA2AAR; conditions: read-out: % inhibition A2A
A3AR [8] = target: T7, A3AR; test: Radioligand binding, membranes of CHO cells stably expressing hA3AR; conditions: species h; agonist radioligand 42; n 3-4; read-out: affinity (KV nM) A3
mA3AR = target: T8, mA3AR (Mus musculus, UniProt Q61618); test: cAMP assay, inhibition of forskolin-stimulated cAMP in mA3AR-transfected HEK cells; format: cell-based; conditions: HEK293; read-out: % efficacy, A3
T8 construct: expressed in transfected cells
T8 sequence (Q61618 1-319): T2 sequence (Q61618 1-319)

A1AR [9] = target: T6, A1AR; test: Radioligand binding, membranes of CHO cells stably expressing hA1AR; conditions: for inhibition at 10 µM: read-out: % inhibition A1
Male Sprague Dawley rats [10] = test: Acute antinociceptive interaction with acute morphine (tail flick); format: in vivo, rat
Description: (§1) Test substances or vehicle were given on day 0 through 6 after completion of the behavioral tests.

Male Sprague Dawley rats [11] = test: Rat morphine antinociceptive tolerance study (osmotic minipump, tail flick test); format: in vivo
Description: Minipumps were filled according to manufacturer's specifications. The use of the osmotic pump ensures a continuous subcutaneously delivery of morphine avoiding intermittent periods of withdrawal. […] The integrity of the pump delivery system was reexamined at the end of each experiment when the spinal cords are harvested.
as §1

Male Balb/c mice = test: Naloxone-precipitated withdrawal in morphine dependent mice; format: in vivo, mouse; conditions: IB-MECA 0.1 mg/kg with three day morphine regimen
Description: Male Balb/c mice (19-26 g) were purchased from University of Adelaide Laboratory Animal Services (Waite Campus, Adelaidem South Australia) and housed 6 per individually ventilated cage (IVC) and maintained in controlled environment (12 h light/dark cycle) with food and water available ad libitum.
A group of control mice (n=7 per strain) received an equal number of saline injections over 3 days.
EtOH was maintained at 0.02% final drug preparation. Vehicle was 0.02% EtOH in normal saline.
Immediately after the naloxone injection, animals were placed into individual Plexiglas observation cylinders (25 h×11 w cm) (Nalgene, Scoresby, VIC, Australia). Withdrawal jumping response symptoms were recorded and the frequency of jumps for each mouse was summed over 30 min. Other characteristic opioid withdrawal behaviors were also recorded such as front paw shakes and hunched/prayer postures. All testing was conducted blind to group assignment.

[12] = Solubility in EtOH on preparing the dosing solution; conditions: 5 mg dissolved in 5 ml EtOH

| Structure (SMILES) | Emax at 10 µM (hA3AR) [%] | Ki (A3AR [1]) [nM] | % inhibition A2A (A2AAR [3]) | inhibition at 10 µM (A2AAR [4]) [%] | % inhibition A1 (A1AR [5]) | inhibition at 10 µM (A1AR [2]) [%] | further results |
| --- | --- | --- | --- | --- | --- | --- | --- |
| CNc1nc(C#Cc2ccccc2)nc2c1ncn2[C@H]1[C@H](O)[C@H](O)[C@@H]2C[C@@H]21 [Compound 8] | 12.6 ± 4 | 1530 ± 240 | (18% ± 3%) | 8 | (18% ± 1%) | – | Ki (A1AR [2]): 3800 ± 780 nM |
| CCNc1nc(C#Cc2ccccc2Cl)nc2c1ncn2C1C(O)C(O)C2CC21 (stereo not shown) [Compound 10] | 7 ± 5.2 | – | (17% ± 6%) | – | (25% ± 11%) | – | Ki (A3AR [6]): 5.8 ± 2.08 nM |
| O[C@@H]1[C@H](O)[C@@H]2C[C@@H]2[C@H]1n1cnc2c(NCCc3ccccc3)nc(C#Cc3ccccc3)nc21 [Compound 14] | 4.1 ± 1.2 | – | (22% ± 5%) | – | (30% ± 8%) | – | – |
| O[C@@H]1[C@H](O)[C@@H]2C[C@@H]2[C@H]1n1cnc2c(NCc3cccc(Cl)c3)nc(C#Cc3ccc(-c4ccccc4)cc3)nc21 [Compound 13] | 3.5 ± 3.2 | 255 ± 77 | (12% ± 7%) | 0 | (48% ± 4%) | – | Ki (A1AR [2]): 1110 ± 220 nM |
| CNC(=O)[C@@]12C[C@@H]1[C@@H](n1cnc3c(NCc4cccc(Cl)c4)nc(C#Cc4cccc(S(=O)(=O)O)c4)nc31)[C@H](O)[C@@H]2O [Compound 7] | 98.2 ± 6.7 | 11.3 ± 1.9 | – | 1 | – | 15 | inhibition at 10 µM (A2AAR [7]): 7%; Ki (A3AR [8]): 1.9 ± 0.03 nM; Emax (mA3AR): 89.3 ± 7.1%; inhibition at 10 µM (A1AR [9]): 16% |
| O=S(=O)(O)c1ccc(CCNc2nc(C#Cc3ccccc3)nc3c2ncn3[C@H]2[C@H](O)[C@H](O)[C@@H]3C[C@@H]32)cc1 [Compound 16] | 7.2 | 3920 ± 1190 | – | 1 | – | 18 | inhibition at 10 µM (A2AAR [7]): 15%; Ki (A3AR [8]): 30.2 ± 4.3 nM; inhibition at 10 µM (A1AR [9]): 10% |
| CNC(=O)[C@@]12C[C@@H]1[C@@H](n1cnc3c(NCc4cccc(Cl)c4)nc(C#Cc4ccccc4)nc31)[C@H](O)[C@@H]2O [Compound 5] | – | 1.23 ± 0.14 | – | 2 | (20% ± 3%) | 50 | % efficacy, A3 (hA3AR; species h, percentage of maximal effect of 5′-N-ethylcarboxamidoadenosine 43, each at 10 μM, mean ± SEM): 101 ± 5.9% |
| CN1CC[C@]23c4c5ccc(O)c4O[C@H]2[C@@H](O)C=C[C@H]3[C@H]1C5 [morphine] | – | – | – | – | – | – | antinociception after acute morphine alone (Male Sprague Dawley rats [10]; morphine 3 mg/kg i.p., at 30 min): 40±2 % antinociception; analgesia at 2 hr following minipump implant (Male Sprague Dawley rats [11]; morphine 75 μg/μl/h s.c. by osmotic minipump): approximately 100 % analgesia; development of antinociceptive tolerance on chronic morphine infusion (Male Sprague Dawley rats [11]; s.c. infusion over 7 days (Veh-Mor, n=2) vs saline infusion, P<0.001, day 3 and 6): led to the development of antinociceptive tolerance |
| CNC(=O)[C@@]12C[C@@H]1[C@@H](n1cnc3c(NCCc4ccccc4)nc(C#Cc4ccccc4)nc31)[C@H](O)[C@@H]2O [Compound 17] | 105 ± 9.8 | 8.75 ± 2.12 | – | 1 | – | 25 | inhibition at 10 µM (A2AAR [7]): 32%; Ki (A3AR [8]): 1.23 ± 0.57 nM; Emax (mA3AR): 115 ± 14.6%; inhibition at 10 µM (A1AR [9]): 11% |
| OC1C(O)C(n2cnc3c(NCc4cccc(Cl)c4)nc(C#Cc4cccc(Cl)c4)nc32)C2CC12 (stereo not shown) [Compound 12] | – | – | – | – | – | – | Ki (A2AAR [3]): 1800 ± 310 nM |
| CNC(=O)[C@H]1O[C@@H](n2cnc3c(NCc4cccc(I)c4)ncnc32)[C@H](O)[C@@H]1O [IB-MECA, N^6-(3-iodobenzyl)-adenosine-5′-N-methyluronamide] | – | – | – | – | – | – | less naloxone-precipitated jumping vs morphine dependent mice receiving vehicle (Male Balb/c mice; 95% CI 1 to 17): 9 jumps/30 min; less episodes of hunched/prayer posture vs morphine dependent mice receiving vehicle (Male Balb/c mice; 95% CI 3 to 7, 30 minute observation): 5 episodes; less bouts of front paw shakes vs morphine dependent mice receiving vehicle (Male Balb/c mice; 95% CI 5 to 15): 10 bouts of front paw shakes/30 min; potentiation of antinociceptive responses to acute morphine (Male Sprague Dawley rats [10]; IB-MECA 0.3 mg/kg i.p. 15 min before morphine 3 mg/kg i.p.): did not potentiate the antinociceptive responses to acute morphine; antinociception after acute morphine with IB-MECA pretreatment (Male Sprague Dawley rats [10]; IB-MECA 0.3 mg/kg i.p. 15 min before morphine 3 mg/kg i.p., at 30 min): 35+5 % antinociception; development of morphine-induced antinociceptive tolerance (Male Sprague Dawley rats [11]; IB-MECA i.p. daily during 7 day s.c. morphine infusion, tail flick 30 min after acute morphine, day 3 and 6, n=2): blocked the development of morphine-induced antinociceptive tolerance; effect on baseline tail flick latency (Male Sprague Dawley rats [11]; given alone daily over 6 days to rats that received saline infusion): had no effect on baseline tail flick latency; solubility in EtOH [12]: soluble |
| OC1C(O)C(n2cnc3c(NCc4cccc(Cl)c4)nc(C#Cc4ccccc4)nc32)C2CC12 (stereo not shown) [Compound 11] | 13.8 ± 5.1 | – | – | – | – | – | Ki (A2AAR [3]): 680 ± 170 nM |
| OC1C(O)C(n2cnc3c(NCC(c4ccccc4)c4ccccc4)nc(C#Cc4ccccc4Cl)nc32)C2CC12 (stereo not shown) [Compound 15] | 2.6 ± 1.3 | – | (22% ± 2%) | – | (26% ± 4%) | – | Ki (A3AR [6]): 140 ± 30 nM |
| CCNc1nc(C#Cc2ccccc2)nc2c1ncn2[C@H]1[C@H](O)[C@H](O)[C@@H]2C[C@@H]21 [Compound 9] | 0.8 ± 5.2 | 1480 ± 170 | (42% ± 4%) | 49 | (36% ± 4%) | 49 | – |
| CNC(=O)[C@@]12C[C@@H]1[C@@H](n1cnc3c(NCc4cccc(Cl)c4)nc(C#Cc4ccc(S(=O)(=O)O)cc4)nc31)[C@H](O)[C@@H]2O [Compound 6] | 96.8 ± 5.7 | 9.68 ± 0.15 | – | 14 | – | – | inhibition at 10 µM (A2AAR [7]): 23%; Ki (A3AR [8]): 11.1 ± 1.6 nM; Emax (mA3AR): 95.7 ± 19.1%; Ki (A1AR [2]): 35.1 ± 5.5 nM; Ki (A1AR [9]; species h, agonist radioligand 40, n 3-4, read-out: affinity (KV nM) A1): 383 ± 75 nM |
